What all share (assay): NCI tumour cell line growth inhibition, 48 h
In assay [1] the test system is SK-MEL-2 melanoma.
Assay [2] has as its system SF-295 CNS.
Assay [3] deals with NCI-H522 lung.
In assay [4] the test system is SNB-75 CNS.
For assay [5], the system named is SN12C renal.
Assay [6] relates to OVCAR-8 ovarian.
For assay [7], the system named is A549 NSCLC.
The test system of assay [8] is NCI/ADR-RES ovarian.
For assay [9], the system named is SNB-19 CNS.
Assay [10] has as its system A498 renal.

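How tested: cells in 96-well plates exposed to compound for 48 hours at five concentrations. At the TGI there is no net growth.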

Consider `N#CC(NNC(=O)c1ccccc1O)c1ccccc1O` (stereo not drawn), for which the TGI in assay [1], in [2], in assay [3], in assay [4], in assay [5] and in [6] was > 100 µM each time. The TGI in assay [7] was > 100 µM.

Take `Cc1nnc(NS(=O)(=O)c2ccc(N=Nc3c(O)c(C(=O)O)cc4ccccc34)cc2)s1`: the TGI in assay [1], in assay [2], in assay [8], in assay [3], in assay [4] and in [9] was > 100 µM each time. Besides, the TGI in [5], in assay [6] and in [7] was > 100 µM in each case.

Consider `CCOc1cc(NC(C)=O)ccc1C(=O)NN1C(=O)/C(=C/c2ccc(Cl)cc2)N=C1c1ccccc1`, for which the TGI in assay [1] was > 100 µM; in assay [2], > 100 µM; in assay [8], > 100 µM; in [4], > 100 µM; in [10], 81.4 µM; in assay [9] it was > 100 µM. Further, the TGI in [5], in [6] and in assay [7] was > 100 µM throughout.

Consider `NC(Cc1c2ccccc2cc2ccccc12)C(=O)O` (stereo not drawn), for which the TGI was > 100 µM in assay [1]; > 100 µM in [2]; > 100 µM in [8]; > 100 µM in [3]; 94.9 µM in assay [4]; > 100 µM in assay [9]. Also, the TGI in [5], in assay [6] and in [7] was > 100 µM in each case.

On to `O=C(O)OC12CCCCCC1C(=O)C1CCCCC12` (stereo not drawn), for which the TGI in [1], in assay [2], in [3], in [4], in assay [9] and in [5] was > 100 µM each time. Moreover, the TGI in assay [6] and in assay [7] was > 100 µM in each case.

`COC(=O)c1c(O)ccc2c1c1c(n2CCc2ccccc2)C(=O)c2ccccc2C1`: the TGI in [1] worked out at 40.5 µM; in [8], 53.1 µM; in [4], 54.1 µM; in [10], 40.5 µM; in assay [9], 84.1 µM; in assay [5], 35.4 µM. In addition, the TGI in assay [6] and in assay [7] was > 100 µM each time.

With `CC(=O)OC(C(=O)NNC(=O)OC(C)(C)C)c1ccccc1` (stereo not drawn), the TGI in [1], in [2], in assay [8], in [3], in assay [4] and in assay [9] was > 100 µM in each case. The TGI in assay [5], in assay [6] and in assay [7] was > 100 µM in each case.

As to `COC(=O)C(Cc1ccc2c(c1)OCO2)(NC(=O)c1ccccc1)P(=O)(OC)OC` (stereo not drawn), the TGI in [1], in assay [2], in [3], in assay [4], in [10] and in [9] was > 100 µM in each case. Besides, the TGI in [5], in [6] and in assay [7] was > 100 µM in each case.

Regarding `CCCCCCCC(=O)N1C2CC3CCC2(CS1(=O)=O)C3(C)C` (stereo not drawn), the TGI was 50.8 µM in assay [2]; 48.5 µM in assay [3]; > 100 µM in [4]; > 100 µM in assay [10]; 76.5 µM in [9]; 49.1 µM in assay [5]. Also, the TGI in [6] and in [7] was > 100 µM each time.

`CCOC(=O)c1nc2ccccc2nc1Oc1ccc(F)cc1`: the TGI in [1], in assay [2], in [8], in assay [4], in assay [10] and in assay [9] was > 100 µM in each case. The TGI in assay [5], in [6] and in assay [7] was > 100 µM each time.

As for `O=C1OCC2=C1C(c1ccc(Cl)cc1)c1cc3c(cc1O2)OCO3` (stereo not drawn), the TGI in assay [1] is > 100 µM; in assay [2], > 100 µM; in assay [8], > 31.2 µM; in assay [4] it was > 100 µM; in assay [10], > 100 µM; in [9] it was > 100 µM. For the same molecule, the TGI in assay [5], in assay [6] and in [7] was > 100 µM each time.

Take `COc1ccc(N(c2ccc(C#N)cc2)c2ccc(C#N)cc2)cc1`: the TGI was > 100 µM in [1]; > 100 µM in [2]; 82.9 µM in assay [3]; > 100 µM in [4]; > 100 µM in [10]; > 100 µM in [9]. Also, the TGI in assay [5], in [6] and in assay [7] was > 100 µM in each case.

`CCCCCCCCCCCCOC(=N)N1CCOCC1`: the TGI in [1] was 23.9 µM; in assay [2], 31.7 µM; in assay [3] it was 30.4 µM; in assay [4], 29.9 µM; in assay [10], > 52.3 µM; in [9], 35.5 µM. For the same molecule, the TGI is > 52.3 µM in assay [5], 33.5 µM in assay [6] and 30.4 µM in [7].

On to `CC12CCC(C(=Nc3ccc([N+](=O)[O-])cc3)C1=O)C2(C)C` (stereo not drawn), for which the TGI in assay [1] was 49.2 µM; in assay [2], > 100 µM; in [8], 63.5 µM; in assay [10] it was > 100 µM; in assay [9], > 100 µM; in [6], 55.3 µM. Besides, in [7], the TGI is > 100 µM.

As for `CCOC(=O)c1c2ccccc2n2c(=O)n(-c3ccccc3)nnc12`, the TGI was > 100 µM in [1]; > 49.1 µM in assay [2]; > 100 µM in [8]; 89.5 µM in assay [4]; > 100 µM in assay [10]; > 100 µM in [9]. Moreover, the TGI in [5], in assay [6] and in assay [7] was > 100 µM in each case.

(Values after PubChem BioAssay (NCI).)
